# Measurements taken from US20260345619A1 (Principia Biopharma Inc., priority 2023, published 2026).
# Test: Asthma Quality of Life Questionnaire with Standardized Activities (AQLQ(S))
# Format: in vivo, human
# Conditions: mITT
# Text: The AQLQ(S) is a self-administered patient reported outcome to measure the functional impairments that are most troublesome to adolescents and adults ≥12 years of age as a result of their asthma.
# Asthma Quality of Life Questionnaire with Standardized Activities (AQLQ(S)) self-administered (≥12 years)
# The AQLQ(S) was designed as a self-administered patient reported outcome to measure the functional impairments that are most troublesome to adolescents and adults ≥12 years of age as a result of their asthma. The instrument is comprised of 32 items, each rated on a 7-point Likert scales from 1 to 7. The AQLQ(S) has 4 domains. The domains and the number of items in each domain are as follows: • Symptoms (12 items) • Activity limitation (11 items) • Emotional function (5 items) • Environmental stimuli (4 items)
# A global score is calculated ranging from 1 to 7 and a score by domain. Higher scores indicate better quality of life. […] Patients were to complete the questionnaire in an electronic diary during on-site visits.
# Secondary endpoints included pre-bronchodilator FEV1 change from baseline at EOT, ACQ-5 score change from baseline, and AQLQ score change from baseline. Other secondary and exploratory endpoints are described in Table 2.
structure (smiles),measurement,setting,value
"CC(C)(C=C(C#N)C(=O)N1CCC[C@@H](n2nc(-c3ccc(Oc4ccccc4)cc3F)c3c(N)ncnc32)C1)N1CCN(C2COC2)CC1 (mixture of isomers) [rilzabrutinib, (R)-2-[3-[4-amino-3-(2-fluoro-4-phenoxy-phenyl)pyrazolo[3,4-d]pyrimidin-1-yl]piperidine-1-carbonyl]-4-methyl-4-[4-(oxetan-3-yl)piperazin-1-yl]pent-2-enenitrile]","AQLQ(S) Global score, Mean","Week 8, 400 mg TID",5.27
same,"AQLQ(S) Global score, Median","Week 8, 400 mg TID",5.06
same,"AQLQ(S) Global score, change from baseline, LS Mean","Week 8, 400 mg TID",0.42
same,"AQLQ(S) Global score, change from baseline, Mean","Week 8, 400 mg TID",0.29
same,"AQLQ(S) Global score, change from baseline, Median","Week 8, 400 mg TID",0.34
same,"AQLQ(S) Symptoms score, Mean","Week 8, 400 mg TID",5.29
same,"AQLQ(S) Symptoms score, Median","Week 8, 400 mg TID",5.17
same,"AQLQ(S) Symptoms score, change from baseline, LS Mean","Week 8, 400 mg TID",0.44
same,"AQLQ(S) Symptoms score, change from baseline, Mean","Week 8, 400 mg TID",0.29
same,"AQLQ(S) Symptoms score, change from baseline, Median","Week 8, 400 mg TID",0.38
same,"AQLQ(S) Symptoms score, change from baseline, LS Mean Diff vs. placebo","Week 8, 400 mg TID, 95% CI −0.16, 0.43",0.13
same,"AQLQ(S) Global score, change from baseline, LS Mean Diff vs. placebo","Week 8, 400 mg TID, 95% CI −0.18, 0.37",0.10
same,"AQLQ(S) Activity limitation score, change from baseline, LS Mean Diff vs. placebo","Week 8, 400 mg TID, 95% CI −0.18, 0.38",0.10
same,"AQLQ(S) Emotional function score, change from baseline, LS Mean Diff vs. placebo","Week 8, 400 mg TID, 95% CI −0.20, 0.45",0.13
same,"AQLQ(S) Environmental stimuli score, change from baseline, LS Mean Diff vs. placebo","Week 8, 400 mg TID, 95% CI −0.34, 0.47",0.06
same,"AQLQ(S) Activity limitation score, Mean","Week 12, 400 mg BID",5.66
same,"AQLQ(S) Activity limitation score, Median","Week 12, 400 mg BID",5.82
same,"AQLQ(S) Activity limitation score, change from baseline, LS Mean","Week 12, 400 mg BID",0.77
same,"AQLQ(S) Activity limitation score, change from baseline, Mean","Week 12, 400 mg BID",0.85
same,"AQLQ(S) Activity limitation score, change from baseline, Median","Week 12, 400 mg BID",0.45
same,"AQLQ(S) Emotional function score, Mean","Week 12, 400 mg BID",5.96
same,"AQLQ(S) Emotional function score, Median","Week 12, 400 mg BID",6.20
same,"AQLQ(S) Emotional function score, change from baseline, LS Mean","Week 12, 400 mg BID",0.97
same,"AQLQ(S) Emotional function score, change from baseline, Mean","Week 12, 400 mg BID",0.72
same,"AQLQ(S) Emotional function score, change from baseline, Median","Week 12, 400 mg BID",0.40
same,"AQLQ(S) Environmental stimuli score, Mean","Week 12, 400 mg BID",5.34
same,"AQLQ(S) Environmental stimuli score, change from baseline, LS Mean","Week 12, 400 mg BID",0.70
same,"AQLQ(S) Environmental stimuli score, change from baseline, Mean","Week 12, 400 mg BID",0.87
same,"AQLQ(S) Environmental stimuli score, change from baseline, Median","Week 12, 400 mg BID",0.50
same,"AQLQ(S) Global score, Mean","Week 12, 400 mg BID",5.75
same,"AQLQ(S) Global score, Median","Week 12, 400 mg BID",5.72
same,"AQLQ(S) Global score, change from baseline, LS Mean","Week 12, 400 mg BID",0.82
same,"AQLQ(S) Global score, change from baseline, Mean","Week 12, 400 mg BID",0.84
same,"AQLQ(S) Global score, change from baseline, Median","Week 12, 400 mg BID",0.69
same,"AQLQ(S) Symptoms score, Mean","Week 12, 400 mg BID",5.87
same,"AQLQ(S) Symptoms score, Median","Week 12, 400 mg BID",5.92
same,"AQLQ(S) Symptoms score, change from baseline, LS Mean","Week 12, 400 mg BID",0.84
same,"AQLQ(S) Symptoms score, change from baseline, Mean","Week 12, 400 mg BID",0.87
same,"AQLQ(S) Symptoms score, change from baseline, Median","Week 12, 400 mg BID",0.83
same,"AQLQ(S) Environmental stimuli score, change from baseline, LS Mean Diff vs. placebo","Week 12, 400 mg BID, 95% CI 0.06, 1.49",0.78
same,"AQLQ(S) Emotional function score, change from baseline, LS Mean Diff vs. placebo","Week 12, 400 mg BID, 95% CI 0.12, 1.36",0.74
same,"AQLQ(S) Symptoms score, change from baseline, LS Mean Diff vs. placebo","Week 12, 400 mg BID, 95% CI 0.22, 1.11",0.67
same,"AQLQ(S) Global score, change from baseline, LS Mean Diff vs. placebo","Week 12, 400 mg BID, 95% CI 0.25, 1.18",0.72
same,"AQLQ(S) Activity limitation score, change from baseline, LS Mean Diff vs. placebo","Week 12, 400 mg BID, 95% CI 0.28, 1.28",0.78
same,"AQLQ(S) Activity limitation score, Mean","Week 12, 400 mg TID",5.45
same,"AQLQ(S) Activity limitation score, Median","Week 12, 400 mg TID",5.36
same,"AQLQ(S) Activity limitation score, change from baseline, LS Mean","Week 12, 400 mg TID",0.62
same,"AQLQ(S) Activity limitation score, change from baseline, Mean","Week 12, 400 mg TID",0.50
same,"AQLQ(S) Activity limitation score, change from baseline, Median","Week 12, 400 mg TID",0.55
same,"AQLQ(S) Emotional function score, Mean","Week 12, 400 mg TID",5.57
same,"AQLQ(S) Emotional function score, Median","Week 12, 400 mg TID",5.60
same,"AQLQ(S) Emotional function score, change from baseline, LS Mean","Week 12, 400 mg TID",0.53
same,"AQLQ(S) Emotional function score, change from baseline, Mean","Week 12, 400 mg TID",0.43
same,"AQLQ(S) Emotional function score, change from baseline, Median","Week 12, 400 mg TID",0.40
same,"AQLQ(S) Environmental stimuli score, Mean","Week 12, 400 mg TID",5.08
same,"AQLQ(S) Environmental stimuli score, change from baseline, LS Mean","Week 12, 400 mg TID",0.54
same,"AQLQ(S) Environmental stimuli score, change from baseline, Mean","Week 12, 400 mg TID",0.46
same,"AQLQ(S) Environmental stimuli score, change from baseline, Median","Week 12, 400 mg TID",0.50
same,"AQLQ(S) Global score, Mean","Week 12, 400 mg TID",5.41
same,"AQLQ(S) Global score, Median","Week 12, 400 mg TID",5.23
same,"AQLQ(S) Global score, change from baseline, LS Mean","Week 12, 400 mg TID",0.57
same,"AQLQ(S) Global score, change from baseline, Mean","Week 12, 400 mg TID",0.46
same,"AQLQ(S) Global score, change from baseline, Median","Week 12, 400 mg TID",0.53
same,"AQLQ(S) Symptoms score, Mean","Week 12, 400 mg TID",5.41
same,"AQLQ(S) Symptoms score, Median","Week 12, 400 mg TID",5.25
same,"AQLQ(S) Symptoms score, change from baseline, LS Mean","Week 12, 400 mg TID",0.59
same,"AQLQ(S) Symptoms score, change from baseline, Mean","Week 12, 400 mg TID",0.44
same,"AQLQ(S) Symptoms score, change from baseline, Median","Week 12, 400 mg TID",0.58
same,"AQLQ(S) Activity limitation score, change from baseline, LS Mean Diff vs. placebo","Week 12, 400 mg TID, 95% CI 0.02, 0.60",0.31
same,"AQLQ(S) Global score, change from baseline, LS Mean Diff vs. placebo","Week 12, 400 mg TID, 95% CI −0.01, 0.60",0.29
same,"AQLQ(S) Symptoms score, change from baseline, LS Mean Diff vs. placebo","Week 12, 400 mg TID, 95% CI −0.01, 0.68",0.34
same,"AQLQ(S) Emotional function score, change from baseline, LS Mean Diff vs. placebo","Week 12, 400 mg TID, 95% CI −0.08, 0.72",0.32
same,"AQLQ(S) Environmental stimuli score, change from baseline, LS Mean Diff vs. placebo","Week 12, 400 mg TID, 95% CI −0.23, 0.57",0.17
